These results are taken from patent US20110053160A1, “HCV NS3/4A REPLICON SHUTTLE VECTORS” (priority 2009, published 2011).

Like-named read-outs stand apart in the source and are kept apart here.

The subject of assay [1] is HCV GT-1b Con1 replicon pPI-luc/ET/SC in cured Huh7 cells. As to the kind of experiment: Transient replicon assay, IC50 determination (firefly luciferase reporter), parent replicon. It counts as cell-based. To be noted: Hepatitis C virus, GT1B, Huh-7, luciferase read 72 hours after addition of inhibitor, read-out: IC50 VX-950. A general note: In antiviral work, replicon cells carry a viral genome segment that copies itself.

Assay [2] is described as follows: Transient replicon assay, IC50 determination (firefly luciferase reporter), shuttle vector replicons with patient-derived NS3/4A. It is filed as cell-based, HCV. Particulars: Hepatitis C virus, Huh-7, 72 h, luciferase read 72 hours after addition of inhibitor, read-out: IC50 VX-950. How it is done: DNA sequences encoding the NS3/4A protein were generated from plasma obtained from patients infected with HCV using reverse transcription of RNA followed by PCRamplification of the reverse-transcribed product. Reverse transcription of RNA was performed using Taqman Reverse Transcription Reagents (Applied Biosystems, Foster City, Calif., USA) using the primer, 5′-ACCAGGTCCTCSGTGGAGG-3′ (SEQ ID NO:9) and according to the manufacturers' protocol. The synthesized cDNA was then PCR-amplified with the GC RICH PCR system (Roche Applied Science) to ensure high fidelity and robust yields. Annealing temperatures in the range of 50-52° C. were used depending on patient sample and primer combinations. Two PCR reactions with two independent primer sets used for the first round PCR were as follows:
Five micrograms of DNA was linearized by Sca I restriction enzyme (Roche Applied Science). After overnight digestion at 37° C., the DNA was purified using Qiagen PCR purification kit. Eight microliters of linearized DNA was used for the in vitro transcription using T7 RiboMAX Express Large Scale RNA Production System kit following manufacturer's protocol (Promega, Madison, Wis., USA). After 2 hours of incubation at 37° C., DNase treatment was performed for 20 minutes at 37° C. to remove the DNA template. In vitro transcribed RNA was then purified using RNeasy mini kit following manufacturer's protocol (Qiagen).
Cured hepatoma cell line Huh7 was obtained from R. Bartenschlager. Cells were cultured at 37° C. in a humidified atmosphere with 5% CO2 in Dulbecco's Modified Eagle Medium (DMEM) supplemented with Glutamax and […] sodium pyruvate (Cat# 10569-010). The medium was further supplemented with 10% (v/v) FBS (Cat# 16000-036) and 1% (v/v) penicillin/streptomycin (Cat# 15140-122). All reagents were from Invitrogen.
Four million cured Huh7 cells were transfected with 10 μg of in vitro transcribed RNA using electroporation. Cells were then resuspended in 12 ml of DMEM containing 5% FBS and plated in 96-well plate at 28,800 cells/well (in 90 μl final volume) Inhibitors were added 24 hours post-transfection in 3 fold dilutions at a final DMSO concentration of 1% and firefly luciferase reporter signal was read 72 hours after addition of inhibitors using the Luciferase Assay system (Promega, cat #E1501). The IC50 values were assessed as the inhibitor concentration at which a 50% reduction in the level of firefly luciferase reporter was observed as compared to the level of firefly luciferase signal without the addition of compounds. […]

`CCC[C@H](NC(=O)[C@@H]1[C@H]2CCC[C@H]2CN1C(=O)[C@@H](NC(=O)[C@@H](NC(=O)c1cnccn1)C1CCCCC1)C(C)(C)C)C(=O)C(=O)NC1CC1` [VX-950]: the IC50 in assay [1] was 253 nM; in assay [2] (patient isolate 34) it was 268 nM; in assay [2] (patient isolate 98), 205 nM; in assay [2] (patient isolate 5903), 97 nM; in assay [2] (patient isolate 34026) it was 48 nM; in assay [2] (patient isolate 52620), 92 nM. Further, the half-maximal inhibitory concentration (IC50) in assay [2] (patient isolate 61793) worked out at 381 nM; in assay [2] (patient isolate 66200) it was 332 nM; in assay [2] (patient isolate 73837-2) it was 228 nM; in assay [2] (patient isolate 135635), 394 nM; in assay [2] (patient isolate 135640), 385 nM; in assay [2] (patient isolate 135641), 175 nM. In addition, the IC50 in assay [2] (patient isolate 135649) worked out at 108 nM; in assay [2] (patient isolate RO256), 93 nM.

The term IC50 denotes the midpoint of a concentration-inhibition curve.
